71 compounds from patent EP1247803A2, “Indolinone compounds suitable for modulation of protein kinases” (Sugen, Inc., priority 1996, dated 1998) can be followed below.

T1 sequence (P35918 20-1345): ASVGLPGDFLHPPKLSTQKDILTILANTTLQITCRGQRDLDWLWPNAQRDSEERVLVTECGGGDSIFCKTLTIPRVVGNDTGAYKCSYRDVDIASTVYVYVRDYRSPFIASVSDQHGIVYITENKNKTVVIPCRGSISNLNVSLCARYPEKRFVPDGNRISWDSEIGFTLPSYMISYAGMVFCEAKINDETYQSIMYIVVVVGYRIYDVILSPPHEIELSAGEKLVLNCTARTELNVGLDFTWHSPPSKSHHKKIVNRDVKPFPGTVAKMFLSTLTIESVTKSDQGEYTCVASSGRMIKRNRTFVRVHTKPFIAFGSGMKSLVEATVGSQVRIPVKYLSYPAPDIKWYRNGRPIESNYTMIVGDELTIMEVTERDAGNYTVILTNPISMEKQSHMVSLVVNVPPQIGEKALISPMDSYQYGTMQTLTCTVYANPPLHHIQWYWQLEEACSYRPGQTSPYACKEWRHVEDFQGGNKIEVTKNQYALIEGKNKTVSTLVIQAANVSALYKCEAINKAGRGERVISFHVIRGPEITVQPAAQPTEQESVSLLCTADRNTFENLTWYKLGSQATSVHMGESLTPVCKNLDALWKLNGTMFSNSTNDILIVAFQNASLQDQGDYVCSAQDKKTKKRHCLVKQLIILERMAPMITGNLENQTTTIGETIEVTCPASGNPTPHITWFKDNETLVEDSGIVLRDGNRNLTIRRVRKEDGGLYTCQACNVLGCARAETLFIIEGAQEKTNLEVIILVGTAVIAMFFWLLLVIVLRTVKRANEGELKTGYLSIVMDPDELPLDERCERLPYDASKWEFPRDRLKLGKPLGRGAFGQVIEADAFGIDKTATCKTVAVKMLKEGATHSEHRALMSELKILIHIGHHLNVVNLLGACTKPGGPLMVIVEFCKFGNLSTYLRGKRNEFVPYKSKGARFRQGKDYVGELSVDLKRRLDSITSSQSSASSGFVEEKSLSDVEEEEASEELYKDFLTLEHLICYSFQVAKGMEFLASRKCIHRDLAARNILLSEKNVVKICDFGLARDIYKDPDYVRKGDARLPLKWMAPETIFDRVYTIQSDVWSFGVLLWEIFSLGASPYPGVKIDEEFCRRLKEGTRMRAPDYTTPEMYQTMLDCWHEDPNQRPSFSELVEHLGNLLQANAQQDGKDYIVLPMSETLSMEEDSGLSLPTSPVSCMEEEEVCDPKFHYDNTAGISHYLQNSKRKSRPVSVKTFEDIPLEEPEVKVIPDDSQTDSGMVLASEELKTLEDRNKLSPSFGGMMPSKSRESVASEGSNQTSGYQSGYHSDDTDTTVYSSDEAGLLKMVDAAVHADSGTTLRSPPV

The experiment concerns the target T1, FLK-1 receptor (Mus musculus, UniProt P35918).
T1 construct: expressed in transfected cells; host or cells: NIH3T3 C7#3
In words: FLK-1 ELISA (kinase activity of the FLK-1 receptor in FLK-1/NIH3T3 cells, VEGF stimulated). Format: cell-based. Put shortly: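 FLK-1-expressing NIH3T3 C7#3 cells, starved overnight in 0.1% FBS medium, were treated with compounds at a 1:200 final dilution (0.5% DMSO) for 2 h at 37 °C, with VEGF stimulation. FLK-1 kinase activity was read by ELISA on anti-rabbit IgG plates using affinity-purified anti-FLK-1 antiserum.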
In general terms: An ELISA detects its analyte on a solid surface through an enzyme-linked reagent.
Take `O=C1Nc2c(Br)cc(Br)cc2C1=Cc1ccc(F)cc1` [10717/A05]: the “Fik Kinase %Inhibition” value was -2.6%.

Consider `Cc1ccc(C=C2C(=O)Nc3ccc(S(=O)(=O)N4CCOCC4)cc32)s1` [10717/F07], for which the “Fik Kinase %Inhibition” value is recorded as 2.0%.

`O=C1Nc2ccc(S(=O)(=O)N3CCOCC3)cc2C1=Cc1ccc(Br)cc1` [10717/F08]: the “Fik Kinase %Inhibition” value is recorded as -0.7%.

For `O=C1Nc2ccc(S(=O)(=O)N3CCOCC3)cc2C1=Cc1ccc[nH]1` [10717/F09], the “Fik Kinase %Inhibition” value is listed as -13.3%.

`COc1cccc(O)c1C=C1C(=O)Nc2ccc(S(=O)(=O)N3CCOCC3)cc21` [10717/F10]: the “Fik Kinase %Inhibition” value is -4,4%.

Regarding `Cc1[nH]c(C=C2C(=O)Nc3ccc(S(=O)(=O)N4CCOCC4)cc32)c(Br)c1Br` [10717/F11], the “Fik Kinase %Inhibition” value was found to be 1.4%.

Turning to `CCOc1ccccc1C=C1C(=O)Nc2ccc(CCCl)cc21` [10717/G02], the “Fik Kinase %Inhibition” value was 14.9%.

For `O=C1Nc2ccc(CCCl)cc2C1=Cc1cccs1` [10717/G03], the “Fik Kinase %Inhibition” value was 1.8%.

For the compound `Cc1c(Br)ccc2c1C(=Cc1sccc1Br)C(=O)N2` [10725/C02], the “Fik Kinase %Inhibition” value is 7.0%.

As for `COc1ccc(Br)c(C=C2C(=O)Nc3ccc(Br)c(C)c32)c1O` [10725/C03], the “Fik Kinase %Inhibition” value was 2.0%.

`Cc1ccc(C=C2C(=O)Nc3ccc(Br)c(C)c32)o1` [10725/C04]: the “Fik Kinase %Inhibition” value was -27.3%.

Regarding `Cc1cc(C=C2C(=O)Nc3ccc(Br)c(C)c32)[nH]n1` [10725/C05], the “Fik Kinase %Inhibition” value is -37.0%.

As for `COc1cc(C)cc(O)c1C=C1C(=O)Nc2ccc(Br)c(C)c21` [10725/C06], the “Fik Kinase %Inhibition” value is listed as -9.3%.

Consider `Cc1c(Br)ccc2c1C(=Cc1ccc(N3CCN(C=O)CC3)cc1)C(=O)N2` [10725/C07], for which the “Fik Kinase %Inhibition” value is listed as 65.0%.

Take `Cc1c(Br)ccc2c1C(=Cc1ccc(N3CCOCC3)cc1)C(=O)N2` [10725/C08]: the “Fik Kinase %Inhibition” value is given as -8.7%.

On to `COC(=O)Cc1c(Cl)[nH]c(C=C2C(=O)Nc3ccc(Br)c(C)c32)c1C(=O)OC` [10725/C09], for which the “Fik Kinase %Inhibition” value was 11.2%.

Turning to `Cc1c(Br)ccc2c1C(=Cc1c(Br)cnn1-c1ccc(Cl)cc1)C(=O)N2` [10725/C10], the “Fik Kinase %Inhibition” value is on record as 8.7%.

Consider `Cc1c(Br)ccc2c1C(=Cc1c[nH]cn1)C(=O)N2` [10725/C11], for which the “Fik Kinase %Inhibition” value is 104.5%.

Regarding `CNS(=O)(=O)c1ccc2c(c1)C(=Cc1sccc1Br)C(=O)N2` [10725/D02], the “Fik Kinase %Inhibition” value is -3.6%.

For the compound `CNS(=O)(=O)c1ccc2c(c1)C(=Cc1c(Br)ccc(OC)c1O)C(=O)N2` [10725/D03], the “Fik Kinase %Inhibition” value is given as -11.3%.

As to `CNS(=O)(=O)c1ccc2c(c1)C(=Cc1ccc(C)o1)C(=O)N2` [10725/D04], the “Fik Kinase %Inhibition” value came out at 3.6%.

For the compound `CNS(=O)(=O)c1ccc2c(c1)C(=Cc1cc(C)n[nH]1)C(=O)N2` [10725/D05], the “Fik Kinase %Inhibition” value is 2.3%.

For `CNS(=O)(=O)c1ccc2c(c1)C(=Cc1c(O)cc(C)cc1OC)C(=O)N2` [10725/D06], the “Fik Kinase %Inhibition” value is recorded as -0.5%.

As to `CNS(=O)(=O)c1ccc2c(c1)C(=Cc1ccc(N3CCN(C=O)CC3)cc1)C(=O)N2` [10725/D07], the “Fik Kinase %Inhibition” value turned out to be 2.6%.

On to `CNS(=O)(=O)c1ccc2c(c1)C(=Cc1ccc(N3CCOCC3)cc1)C(=O)N2` [10725/D08], for which the “Fik Kinase %Inhibition” value is recorded as 1.8%.

`CNS(=O)(=O)c1ccc2c(c1)C(=Cc1[nH]c(Cl)c(CC(=O)OC)c1C(=O)OC)C(=O)N2` [10725/D09]: the “Fik Kinase %Inhibition” value is -0.9%.

On to `CNS(=O)(=O)c1ccc2c(c1)C(=Cc1c(Br)cnn1-c1ccc(Cl)cc1)C(=O)N2` [10725/D10], for which the “Fik Kinase %Inhibition” value was found to be 9.0%.

In the case of `CNS(=O)(=O)c1ccc2c(c1)C(=Cc1c[nH]cn1)C(=O)N2` [10725/D11], the “Fik Kinase %Inhibition” value amounted to 13.6%.

As to `O=C1Nc2ccc(S(=O)(=O)Nc3ccc(C(F)(F)F)cc3)cc2C1=Cc1sccc1Br` [10725/E02], the “Fik Kinase %Inhibition” value is -5.6%.

With `COc1ccc(Br)c(C=C2C(=O)Nc3ccc(S(=O)(=O)Nc4ccc(C(F)(F)F)cc4)cc32)c1O` [10725/E03], the “Fik Kinase %Inhibition” value is listed as -0.8%.

In the case of `Cc1ccc(C=C2C(=O)Nc3ccc(S(=O)(=O)Nc4ccc(C(F)(F)F)cc4)cc32)o1` [10725/E04], the “Fik Kinase %Inhibition” value is -38.8%.

In the case of `Cc1cc(C=C2C(=O)Nc3ccc(S(=O)(=O)Nc4ccc(C(F)(F)F)cc4)cc32)[nH]n1` [10725/E05], the “Fik Kinase %Inhibition” value is -0.2%.

With `COc1cc(C)cc(O)c1C=C1C(=O)Nc2ccc(S(=O)(=O)Nc3ccc(C(F)(F)F)cc3)cc21` [10725/E06], the “Fik Kinase %Inhibition” value was -1.8%.

As to `O=CN1CCN(c2ccc(C=C3C(=O)Nc4ccc(S(=O)(=O)Nc5ccc(C(F)(F)F)cc5)cc43)cc2)CC1` [10725/E07], the “Fik Kinase %Inhibition” value is 9.7%.

For `O=C1Nc2ccc(S(=O)(=O)Nc3ccc(C(F)(F)F)cc3)cc2C1=Cc1ccc(N2CCOCC2)cc1` [10725/E08], the “Fik Kinase %Inhibition” value was 12.1%.

Regarding `COC(=O)Cc1c(Cl)[nH]c(C=C2C(=O)Nc3ccc(S(=O)(=O)Nc4ccc(C(F)(F)F)cc4)cc32)c1C(=O)OC` [10725/E09], the “Fik Kinase %Inhibition” value stood at 7.0%.

As for `O=C1Nc2ccc(S(=O)(=O)Nc3ccc(C(F)(F)F)cc3)cc2C1=Cc1c(Br)cnn1-c1ccc(Cl)cc1` [10725/E10], the “Fik Kinase %Inhibition” value was found to be 9.3%.

Turning to `O=C1Nc2ccc(S(=O)(=O)Nc3ccc(C(F)(F)F)cc3)cc2C1=Cc1c[nH]cn1` [10725/E11], the “Fik Kinase %Inhibition” value worked out at 18.9%.

For the compound `O=C1Nc2ccc(S(=O)(=O)N3CCOCC3)cc2C1=Cc1sccc1Br` [10725/F02], the “Fik Kinase %Inhibition” value was 5.8%.

Take `COc1ccc(Br)c(C=C2C(=O)Nc3ccc(S(=O)(=O)N4CCOCC4)cc32)c1O` [10725/F03]: the “Fik Kinase %Inhibition” value stood at 4.3%.

For `Cc1ccc(C=C2C(=O)Nc3ccc(S(=O)(=O)N4CCOCC4)cc32)o1` [10725/F04], the “Fik Kinase %Inhibition” value is listed as -6.9%.

As for `Cc1cc(C=C2C(=O)Nc3ccc(S(=O)(=O)N4CCOCC4)cc32)[nH]n1` [10725/F05], the “Fik Kinase %Inhibition” value is given as -0.8%.

For the compound `COc1cc(C)cc(O)c1C=C1C(=O)Nc2ccc(S(=O)(=O)N3CCOCC3)cc21` [10725/F06], the “Fik Kinase %Inhibition” value is recorded as -1.0%.

On to `O=CN1CCN(c2ccc(C=C3C(=O)Nc4ccc(S(=O)(=O)N5CCOCC5)cc43)cc2)CC1` [10725/F07], for which the “Fik Kinase %Inhibition” value was 6.9%.

Take `O=C1Nc2ccc(S(=O)(=O)N3CCOCC3)cc2C1=Cc1ccc(N2CCOCC2)cc1` [10725/F08]: the “Fik Kinase %Inhibition” value is given as 8.9%.

Regarding `COC(=O)Cc1c(Cl)[nH]c(C=C2C(=O)Nc3ccc(S(=O)(=O)N4CCOCC4)cc32)c1C(=O)OC` [10725/F09], the “Fik Kinase %Inhibition” value stood at 6.8%.

For the compound `O=C1Nc2ccc(S(=O)(=O)N3CCOCC3)cc2C1=Cc1c(Br)cnn1-c1ccc(Cl)cc1` [10725/F10], the “Fik Kinase %Inhibition” value is 4.8%.

In the case of `O=C1Nc2ccc(S(=O)(=O)N3CCOCC3)cc2C1=Cc1c[nH]cn1` [10725/F11], the “Fik Kinase %Inhibition” value was found to be 9.9%.

For the compound `O=C1Nc2ccc(CCCl)cc2C1=Cc1sccc1Br` [10725/G02], the “Fik Kinase %Inhibition” value is given as -3.7%.

Turning to `COc1ccc(Br)c(C=C2C(=O)Nc3ccc(CCCl)cc32)c1O` [10725/G03], the “Fik Kinase %Inhibition” value is given as -6.9%.

Consider `Cc1ccc(C=C2C(=O)Nc3ccc(CCCl)cc32)o1` [10725/G04], for which the “Fik Kinase %Inhibition” value was found to be 6.1%.

With `Cc1cc(C=C2C(=O)Nc3ccc(CCCl)cc32)[nH]n1` [10725/G05], the “Fik Kinase %Inhibition” value is reported as -18.3%.

On to `COc1cc(C)cc(O)c1C=C1C(=O)Nc2ccc(CCCl)cc21` [10725/G06], for which the “Fik Kinase %Inhibition” value is 21.7%.

Regarding `O=CN1CCN(c2ccc(C=C3C(=O)Nc4ccc(CCCl)cc43)cc2)CC1` [10725/G07], the “Fik Kinase %Inhibition” value worked out at 4.8%.

In the case of `O=C1Nc2ccc(CCCl)cc2C1=Cc1ccc(N2CCOCC2)cc1` [10725/G08], the “Fik Kinase %Inhibition” value is recorded as -14.8%.

With `COC(=O)Cc1c(Cl)[nH]c(C=C2C(=O)Nc3ccc(CCCl)cc32)c1C(=O)OC` [10725/G09], the “Fik Kinase %Inhibition” value is given as 15.2%.

Regarding `O=C1Nc2ccc(CCCl)cc2C1=Cc1c(Br)cnn1-c1ccc(Cl)cc1` [10725/G10], the “Fik Kinase %Inhibition” value amounted to 11.1%.

In the case of `O=C1Nc2ccc(CCCl)cc2C1=Cc1c[nH]cn1` [10725/G11], the “Fik Kinase %Inhibition” value was -28.0%.

As to `CCOC(=O)c1[nH]c(C=C2C(=O)Nc3c(Br)cc(Br)cc32)c(C(=O)OC)c1C` [10726/A03], the “Fik Kinase %Inhibition” value is -2.6%.

Take `Cc1cc(C=C2C(=O)Nc3c(Br)cc(Br)cc32)cc(C(C)(C)C)c1O` [10726/A04]: the “Fik Kinase %Inhibition” value is on record as 7.6%.

As to `O=C1Nc2c(Br)cc(Br)cc2C1=Cc1ccc(Br)o1` [10726/A05], the “Fik Kinase %Inhibition” value is listed as -7.1%.

Consider `Cc1cn(C)cc1C=C1C(=O)Nc2c(Br)cc(Br)cc21` [10726/A06], for which the “Fik Kinase %Inhibition” value is listed as -4.6%.

Turning to `O=C1Nc2c(Br)cc(Br)cc2C1=Cc1cc(O)c2c(c1O)CCCC2` [10726/A07], the “Fik Kinase %Inhibition” value is given as -72.3%.

For `O=C1Nc2ccc(F)cc2C1=C1C(=O)Nc2c(Br)cc(Br)cc21` [10726/A08], the “Fik Kinase %Inhibition” value is -4.0%.

Take `O=C1Nc2ccccc2C1=C1C(=O)Nc2c(Br)cc(Br)cc21` [10726/A09]: the “Fik Kinase %Inhibition” value was -4.5%.

For the compound `CCc1ccc(C=C2C(=O)Nc3c(Br)cc(Br)cc32)s1` [10726/A10], the “Fik Kinase %Inhibition” value came to 3.7%.

`COc1ccc(C=C2C(=O)Nc3c(Br)cc(Br)cc32)cc1` [10726/A11]: the “Fik Kinase %Inhibition” value was determined as 0.5%.

With `CCOC(=O)c1[nH]c(C=C2C(=O)Nc3ccc(I)cc32)c(C(=O)OC)c1C` [10726/B03], the “Fik Kinase %Inhibition” value is given as 11.1%.

With `Cc1cc(C=C2C(=O)Nc3ccc(I)cc32)cc(C(C)(C)C)c1O` [10726/B04], the “Fik Kinase %Inhibition” value is listed as 16.8%.

As to `O=C1Nc2ccc(I)cc2C1=Cc1ccc(Br)o1` [10726/B05], the “Fik Kinase %Inhibition” value was 13.2%.

Regarding `Cc1cn(C)cc1C=C1C(=O)Nc2ccc(I)cc21` [10726/B06], the “Fik Kinase %Inhibition” value is 11.3%.
